These results are taken from patent US20250129027A1 (APOGEE PHARMACEUTICALS, INC., priority 2023, published 2025).

The Tmax is the time from dosing to the highest level. For orientation: bioavailability means dose-corrected exposure relative to a reference, in per cent. Broadly, the IC50 is the concentration that inhibits the measured activity by half. By solubility is commonly meant the dissolved amount per volume that the medium holds. A lower solubility goes with little dissolved substance.

Data set [1] in a line: Pharmacokinetic study in rats, IV and oral gavage, with brain penetration. The class given is in vivo, rat. The following applies: for Cmax exposure relative to URB597: 10 mg/kg PO vs URB597 at 250 mg/kg; for clearance: read-out: CLp; for Vd: read-out: Vdss; for improvement in oral exposure maximums compared to URB597: dose-adjusted (25× lower dose, 10× Cmax); for Kp at 0.5 h: read-out: Brain/Plasma ratio (0.5 h); for Kp at 1 h: read-out: Brain/Plasma ratio (1 h). The procedure: In pharmacokinetic (PK) studies, animals were administered compounds of the present disclosure and PK parameters were measured. Rats (male, Sprague Dawley) were administered compound of Example 158 at a dose of 1.0 mg/kg intravenously (IV) or 10 mg/kg via oral gavage (PO). Blood samples were taken at t=0.083, 0.25. 0.5, 1, 2, 4, 6, 8 and 24 h post-dose and the plasma was analyzed for concentration of test article (compound of Example 158). Using standard analytical methodology (HPLC analysis), the following parameters were obtained:
Rats were administered compound of Example 172 at a dose of 1.0 mg/kg intravenously (IV) or 10 mg/kg via oral gavage (PO). Using standard analytical methodology (HPLC analysis), the following parameters were obtained: […]

The target in the next data set is human recombinant MAGL (Homo sapiens (Human), UniProt Q99685). Description: In vitro inhibition of MAGL activity (inhibitor screening kit, 4-nitrophenylacetate). The class given is biochemical. The settings on record: human recombinant MAGL. In short, it runs like this:
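Percent inhibition derived from absorbance (405-412 nm) of treated wells relative to untreated enzyme control. Human recombinant MAGL with 4-nitrophenylacetate substrate, whose cleavage yields yellow 4-nitrophenol.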

A further data set has as its target human recombinant FAAH (Homo sapiens (Human), UniProt O00519). Description: In vitro inhibition of FAAH activity (fluorescent inhibitor screening kit, AMC arachidonoyl amide). Type of data set: biochemical. In short, it runs like this:
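Fluorogenic kit assay: AMC arachidonoyl amide is cleaved by human recombinant FAAH, read at 340-360/450-465 nm. Percent inhibition versus non-treated control; IC50 values derived from multiple compound concentrations where tested.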

A short description of data set [2]: Aqueous solubility in PBS buffer pH 7.4 (LC-MS). The following applies: phosphate buffer, kinetic from dmso stock, PBS buffer pH 7.4, room temperature, spiked at 100 μM from DMSO stock. The class given is physicochemical. On the procedure:
Compounds as described herewith were analyzed for their aqueous solubility.
The aqueous solubility of compounds were determined using standard protocols. To illustrate the experimental protocol, the analysis of a representative compound is described. Exemplary compound of Example 158 (MW: 380.4 g/mol) was analyzed in a buffer system at specified pH (phosphate buffer, pH 7.4). This was accomplished by spiking a DMSO stock solution of the test compound at a final concentration of 100 μM in buffer.
Solubility calculation: This is a quantitative assay. The mixture at the end of the assay is filtered by 0.22 micron syringe filter and after 5× dilution in diluent, it was analyzed versus a calibration curve using LC-MS.

Data set [3] in a line: Plasma stability (LC-MS/MS, % parent compound remaining, half-life). The class given is in vitro ADME. The following applies: human plasma; for half-life at 1 μM: 37° C., 0-240 mins, read-out: Human Plasma Stability (t1/2, min); for plasma stability and/or aqueous solubility compared to reference compound URB597: see Table 5. The procedure:
Exemplary compounds described herewith were assayed for plasma stability (various species).
Plasma was removed from deep freezer and allowed to thaw at room temperature (or at 37° C. if needed). Plasma was then centrifuged at 4,000 rpm at RT for 10 min and supernatant was collected and used for the assay: • Drug test tubes: 297 μL plasma/drug test tube, duplicate/drug. • Blank test tubes: 297 μL plasma/Blank test tube, duplicate, too. (Optional, if assay system is stable and consistent) • T0 plasma tube: […] X No. of total sample tubes+50 μL extra for T0 extraction. • (Note: equivalent proportion of solvent mixture as added in drug test tubes will be added before T0 extraction!)
Take out the pre-warmed plasma tubes from the 37° C. incubator. Add 3 μL of 100 μM stock solution (or, equivalent proportion of the solvent mixture to T0 plasma tube for T0 extraction) to each corresponding sample tubes in order, vortex gently (3×) to mix. Finish the sample tubes orderly and quickly, then transfer them to the Thermomixer (program & 37° C. ready), and start the Thermomixer. Record starting time on paper & start the timer for 15 min for the 1st sampling time point.
Now add the equivalent amount of solvent mixture to the T0 plasma tube, mix, and transfer 50 μL plasma to each of the T0 extracting tubes, vortex 20s and placed on ice. Vortex 10s again before centrifuging the samples at 14,000 rpm for 5 min at 4° C.
Repeat the above procedures at each time point (15, 30, 60, 120, 240 min) by transferring 50 μL plasma samples from the testing tubes to the corresponding extracting tubes, in the same order and time scheme as in the addition of the drug to the plasma samples at the beginning of the study.
• Kel=Slope of LN % PCR vs time
Half life (t½)=0.693/Kel (1)

The conditions of data set [4]: oral dosing, dose of 250 mg/kg; cited from earlier work.
The mark [5] stands for this setting: Sprague Dawley, plasma, rat (SD, male), IV 1.0 mg/kg, read-out: AUC0-Y (ng h/mL), IV.
The mark [6] stands for this setting: Sprague Dawley, plasma, rat (SD, male), IV 1.0 mg/kg.
Where [7] appears, read: Sprague Dawley, plasma, rat (SD, male), IV 1.0 mg/kg, read-out: t1/2 (h), IV (converted).
[8] abbreviates: male, Sprague Dawley, brain, rat.
Setting [9] is: male, Sprague Dawley, plasma, rat, PO 10.0 mg/kg.
The mark [10] stands for this setting: male, Sprague Dawley, plasma, rat, PO 10.0 mg/kg, read-out: AUC0-Y (ng h/mL), PO.
[11] abbreviates: male, Sprague Dawley, plasma, rat, PO 10.0 mg/kg, read-out: Cmax.
Where [12] appears, read: male, Sprague Dawley, plasma, rat, PO 10.0 mg/kg, read-out: Cmax (ng/mL).
The mark [13] stands for this setting: male, Sprague Dawley, plasma, rat, PO 10.0 mg/kg, read-out: t1/2 (h), PO (converted).
Setting [14] is: rat, PO 10.0 mg/kg vs IV 1.0 mg/kg.
Where [15] appears, read: FAAH, values as listed in Table 5, read-out: IC50.
Setting [16] is: human recombinant FAAH, read-out: Inhibition on FAAH activity (IC50).
Setting [17] is: male, Sprague Dawley, brain, intravenous, 1 mg/kg, rat.

In brackets after ≈: the same amount, converted by molar mass. Where two headings read alike, the source gives them in different places.

Sequence of human recombinant MAGL (Q99685 whole entry): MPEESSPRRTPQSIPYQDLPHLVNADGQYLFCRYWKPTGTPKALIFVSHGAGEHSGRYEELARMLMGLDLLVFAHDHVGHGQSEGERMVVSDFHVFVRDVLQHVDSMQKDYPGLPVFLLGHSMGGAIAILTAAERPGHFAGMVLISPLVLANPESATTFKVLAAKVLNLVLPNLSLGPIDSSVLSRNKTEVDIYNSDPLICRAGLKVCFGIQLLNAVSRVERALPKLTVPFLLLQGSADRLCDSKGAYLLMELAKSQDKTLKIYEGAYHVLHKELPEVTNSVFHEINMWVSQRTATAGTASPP
Sequence of human recombinant FAAH (O00519 whole entry): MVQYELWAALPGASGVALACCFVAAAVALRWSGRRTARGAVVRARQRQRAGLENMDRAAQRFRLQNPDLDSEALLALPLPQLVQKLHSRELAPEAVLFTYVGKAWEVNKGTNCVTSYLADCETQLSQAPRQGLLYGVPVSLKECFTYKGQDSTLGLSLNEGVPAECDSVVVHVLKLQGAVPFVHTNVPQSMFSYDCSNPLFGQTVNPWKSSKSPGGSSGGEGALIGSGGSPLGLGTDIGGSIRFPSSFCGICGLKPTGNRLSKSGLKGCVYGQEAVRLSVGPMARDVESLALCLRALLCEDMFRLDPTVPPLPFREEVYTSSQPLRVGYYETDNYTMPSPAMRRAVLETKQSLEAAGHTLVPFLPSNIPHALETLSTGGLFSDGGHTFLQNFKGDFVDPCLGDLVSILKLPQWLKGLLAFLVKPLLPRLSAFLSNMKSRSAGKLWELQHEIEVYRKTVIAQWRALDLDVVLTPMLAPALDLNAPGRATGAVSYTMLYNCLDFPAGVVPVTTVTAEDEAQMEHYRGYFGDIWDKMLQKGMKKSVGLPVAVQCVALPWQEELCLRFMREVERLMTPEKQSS

Turning to `O=C(NC1CCCCC1)Oc1ccc(O)c(-c2cncc(-c3nnco3)c2)c1` [Example 158, 3-(5-(1,3,4-oxadiazol-2-yl)pyridin-3-yl)-4-hydroxyphenyl cyclohexylcarbamate], in data set [1], the “Cmax exposure relative to URB597” value was approximately 10 × and the “improvement in oral exposure maximums compared to URB597” value is recorded as approximately 250 ×. Further, in data set [1] (setting [5]), the AUC stood at 1340 ng·h/mL. For the same molecule, in data set [1] (setting [6]), the clearance is 12 mL/min/kg and the Vd was 0.62 L/kg. The half-life in data set [1] (setting [7]) is 0.31 h. In addition, in data set [1] (setting [8]), the Kp at 0.5 h came to 0.01 and the Kp at 1 h was found to be 0.02. Further, the Tmax in data set [1] (setting [9]) is 30 min. In addition, the AUC in data set [1] (setting [10]) is 7050 ng·h/mL. Further, the Cmax in data set [1] (setting [11]) stood at 5.05 µM. Besides, the Cmax in data set [1] (setting [12]) amounted to 1920 ng/mL. The half-life in data set [1] (setting [13]) is 2.85 h. The bioavailability in data set [1] (male, Sprague Dawley, rat, plasma, oral, 10 mg/kg, rat, PO 10.0 mg/kg vs IV 1.0 mg/kg, read-out: F (%) oral bioavailability) stood at 53%. In data set [1] (rat (SD, male), IV 1.0 mg/kg), the “Co” value is 4829 ng/mL and the “Co [uM]” value was “[12.7 uM]”. Moreover, in data set [1] (rat, PO 10.0 mg/kg), the “AUC0-Y (ng h/mL), PO” value worked out at 7054 ng·h/mL and the “t1/2 (h), PO” value worked out at 2.85 h. In addition, the “F (%) oral bioavailability” value in data set [1] (setting [14]) is given as more than 50%. The concentration for half-maximal inhibition (IC50) on human recombinant MAGL is more than 50000 nM. In addition, the IC50 on human recombinant FAAH (setting [15]) was determined as 127 nM. Moreover, on human recombinant FAAH (setting [16]), the IC50 stood at 124 nM. In data set [2], this molecule yielded a solubility of 92.5 µM (≈ 35.2 µg/mL). For the same molecule, in data set [3], the half-life at 1 μM is 350 min; the “plasma stability and/or aqueous solubility compared to reference compound URB597” value was “improved plasma stability, improved aqueous solubility, or improved plasma stability and aqueous solubility”.

For `COc1ccc(OC(=O)NC2CCCCCC2)cc1-c1cncc(-c2nnco2)c1` [Example 172, 3-(5-(1,3,4-oxadiazol-2-yl)pyridin-3-yl)-4-methoxyphenyl cycloheptylcarbamate], in data set [1], the “Cmax exposure relative to URB597” value was approximately 10 ×. Moreover, the AUC is 424 ng·h/mL in data set [1] (setting [5]) and 5260 ng·h/mL in data set [1] (setting [10]). Also, the clearance in data set [1] (setting [6]) came out at 40 mL/min/kg. Besides, the Vd in data set [1] (setting [6]) is 1.58 L/kg. For the same molecule, the half-life in data set [1] (setting [7]) is 0.8 h; in data set [1] (setting [13]), 1.25 h. Further, the “improvement in oral exposure maximums compared to URB597” value in data set [1] is listed as approximately 250 ×. In addition, the Kp at 0.5 h in data set [1] (setting [17]) and in data set [1] (setting [8]) was 0.15 each time. The Kp at 1 h in data set [1] (setting [17]) and in data set [1] (setting [8]) was 0.19 in each case. In data set [1] (male, Sprague Dawley, brain, rat, time not stated, read-out: Brain/Plasma ratio), the Kp is more than 0.15. The Tmax in data set [1] (setting [9]) turned out to be 30 min. The Cmax worked out at 5.91 µM in data set [1] (setting [11]) and 2250 ng/mL in data set [1] (setting [12]). In addition, the “Co” value in data set [1] (rat (SD, male), IV 1.0 mg/kg) is 1528 ng/mL. In data set [1] (rat (SD, male), IV 1.0 mg/kg), the “Co [uM]” value is “[4.02 uM]”. Besides, in data set [1] (rat, PO 10.0 mg/kg), the “AUC0-Y (ng h/mL), PO” value stood at 5257 ng·h/mL. Moreover, in data set [1] (setting [14]), the “F (%) oral bioavailability” value is given as more than 100%. The values for the IC50 at human recombinant MAGL, on human recombinant FAAH (setting [15]) and on human recombinant FAAH (setting [16]) were more than 10000 nM, 112 nM and 112 nM, respectively. Moreover, in data set [2], the solubility amounted to 16.2 µM (≈ 6.62 µg/mL). For the same molecule, in data set [3], the half-life at 1 μM stood at 361 min. In addition, the “plasma stability and/or aqueous solubility compared to reference compound URB597” value in data set [3] was “improved plasma stability, improved aqueous solubility, or improved plasma stability and aqueous solubility”.

In the case of `COc1ccc(OC(=O)NC2CCCCCC2)cc1-c1cncc(-c2ncco2)c1` [Example 83, 4-methoxy-3-(5-(oxazol-2-yl)pyridin-3-yl)phenyl cycloheptylcarbamate], the IC50 is more than 10000 nM on human recombinant MAGL, 111 nM on human recombinant FAAH (setting [15]) and 10 to 100 nM on human recombinant FAAH (setting [16]). In data set [2], this molecule registered a solubility of 16.3 µM (≈ 6.64 µg/mL). In addition, the half-life at 1 μM in data set [3] worked out at 194 min. Also, the “plasma stability and/or aqueous solubility compared to reference compound URB597” value in data set [3] was “improved plasma stability, improved aqueous solubility, or improved plasma stability and aqueous solubility”.

Consider `COc1cc(OC(=O)NC2CCCCCC2)cc(-c2cncc(-c3nnco3)c2)c1` [Example 179, 3-(5-(1,3,4-oxadiazol-2-yl)pyridin-3-yl)-5-methoxyphenyl cycloheptylcarbamate], for which the IC50 at human recombinant MAGL was 10000 to 50000 nM; on human recombinant FAAH (setting [15]) it was 91.1 nM; on human recombinant FAAH (setting [16]), 91.1 nM. In data set [2], this molecule displayed a solubility of 9.2 µM (≈ 3.76 µg/mL). Moreover, in data set [3], the half-life at 1 μM was found to be 18 min.

On to `O=C(NC1CCCCCC1)Oc1ccc(F)c(-c2cncc(-c3ncco3)c2)c1` [Example 87, 4-fluoro-3-(5-(oxazol-2-yl)pyridin-3-yl)phenyl cycloheptylcarbamate], for which the IC50 at human recombinant MAGL is more than 10000 nM; on human recombinant FAAH (setting [15]), 23.9 nM; on human recombinant FAAH (setting [16]), 23.9 nM. In addition, the solubility in data set [2] was 8.6 µM (≈ 3.4 µg/mL). Besides, the half-life at 1 μM in data set [3] worked out at 7 min.

Consider `NC(=O)c1cccc(-c2cccc(OC(=O)NC3CCCCC3)c2)c1` [URB597, reference compound], for which the IC50 at human recombinant MAGL was more than 50000 nM. For the same molecule, the Cmax in data set [4] is reported as approximately 200 ng/mL. In addition, the solubility in data set [2] came to 2.8 µM (≈ 0.948 µg/mL). In data set [3], the half-life at 1 μM was determined as 47 min.
